Laboratory results taken from patent US9428753B2, “Use of LXR antagonists for treatment of side effects of elevated glucocorticoid levels” (The Governing Council of the University of Toronto, priority 2013, dated 2016).

How the values were obtained:
[1] = tested on: tyrosine aminotransferase (TAT); test: TAT gene expression in mouse primary hepatocytes; assay type: cell-based; conditions: WT, LXRα−/− and LXRβ−/− hepatocytes; 100 nM Dex + 10 μM GSK2033
Protocol: T09 treatment was used as a positive control for LXR activity. (D) Glucose output over 24 hrs from LXRα−/− and LXRβ−/− mouse primary hepatocytes following Dex 100 nM±10 μM GSK2033 treatment. (E) Glucose output over 8 hrs from WT hepatocytes following Dex 500 nM±10 μM GSK2033 treatments. […] Legend: V=vehicle, G=GSK2033 (LXR antagonist); D=dexamethasone (GR agonist); and T09=T0901317 (LXR agonist).

[2] = biological target: T1, LXRβ (Homo sapiens, UniProt P55055); test: GAL4-LXRβ / UAS-luc transfection assay in mouse primary hepatocytes
T1 sequence (P55055 222-460 limits assumed): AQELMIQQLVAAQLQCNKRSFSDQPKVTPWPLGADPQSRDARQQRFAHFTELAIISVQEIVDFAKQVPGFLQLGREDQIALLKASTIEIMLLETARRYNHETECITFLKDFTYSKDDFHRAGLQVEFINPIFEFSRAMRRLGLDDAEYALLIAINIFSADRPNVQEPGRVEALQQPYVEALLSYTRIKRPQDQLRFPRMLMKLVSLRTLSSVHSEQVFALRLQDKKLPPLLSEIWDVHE
Source text: RLU=relative luciferase units.

In the case of `Cc1cc(C)c(S(=O)(=O)N(Cc2ccc(-c3cccc(S(C)(=O)=O)c3)cc2)Cc2ccc(C(F)(F)F)o2)c(C)c1` [GSK2033, 2,4,6-trimethyl-N-((3′-(methylsulfonyl)-[1,1′-biphenyl]-4-yl)methyl)-N-((5-(trifluoromethyl)furan-2-yl)methyl)benzenesulfonamide], the “Dex induction of TAT under GSK2033 co-treatment” value [1] is reported as “not altered”, the IC50 [2] is reported as 0.292 µM and the “right-shift of LXRβ IC50, primary hepatocytes vs HEK293” value [2] is reported as roughly 10 fold. The “selectivity for LXRβ vs. LXRα” value ([2]; in hepatocytes) was 2.5 fold.
